In patent US9162993B2, “Preparation and pharmaceuticals of biphenyl benzamide-derived derivatives” (NATIONAL DEFENSE MEDICAL CENTER, priority 2012, dated 2015):

Assays:
[1] = system: NO production; assay: Measurement of NO concentrations (Griess reaction) in porcine chondrocytes; type: cell-based; settings: Sus scrofa, Chondrocyte, nitrite in supernatants, read-out: anti-inflammatory IC50 (μM) on NO production
Method: Porcine cartilage was obtained from the hind leg joints of pigs. The synthesis of chondrocytes from cartilage was performed according to our previous report. After enzymatic digestion of articular cartilage with 2 mg/mL protease in serum-free Dulbecco's modified Eagle's medium (DMEM)/antibiotics, the specimens were then digested overnight with 2 mg/mL collagenase I and 0.9 mg/ml, hyaluronidase in DMEM containing 10% fetal bovine serum (FBS). The cells were collected, passed through a cell strainer (Becton Dickinson, Mountain View, Calif., USA), and cultured in DMEM containing 10% […] and antibiotics for 3-4 days before use.
The measurement of NO release was reflected by determination of its stable end product, nitrite, in supernatants. The Griess reaction was performed with the concentrations of nitrite measured by a spectrophotometer. In brief, an aliquot (100 μL) of culture supernatant was incubated with 50 μL of 0.1% sulfanilamide in 5% phosphoric acid and 50 μL of 0.1% N-1-naphthyl-ethylenediamine dihydrochloride. After 10 min of incubation at room temperature, the absorbance was measured at 550 nm wavelength with a plate reader (recall, Grodig, […]).

[2] = system: RANKL-induced resorption of osteoclast (RAW264.7 cells); assay: Pit formation assay (bone resorption activity); type: cell-based, murine; settings: 5 μM, dentine slices, 4 days, FIG. 1B
Method: (§1) The compounds 1 to 24 of the present invention is tested by three pharmacological activity tests as follows: (1) MTT assay to test the RAW264.7 cell (murine monocyte/macrophage cell line) viability; (2) Tartrate-resistant acid phosphatase (TRAP) staining and activity analysis to investigate the cell differentiation activity; (3) The activity test of bone resorption (Pit formation assay).
By using pit formation assay, compounds 4 and 16 have effect on inhibition of resorption of osteoclast. RAW264.7 cells were cultured without compounds (compound 4 or compound 16, 5 μM) or treated with compounds (compound 4 or compound 16, 5 μM) in 24 well dentine slices plates in the presence of RANKL after 4 days, to identify the ability of resorption of osteoclast by observing the resorption pits formation. […] It was obvious that compound 4 or 16 could inhibit the RANKL-induced resorption of osteoclast (FIG. 3A to D).

[3] = system: RANKL-induced osteoclast differentiation in RAW 264.7 cells; assay: TRAP staining, RANKL-induced osteoclast differentiation (TRAP+ multinucleated cells); type: cell-based, murine; settings: Mus musculus; for inhibition at 5 µM: RAW264.7, RAW 264.7 cells, RANKL (100 ng/mL), compounds at 5 μM, TRAP-positive multinucleated cells, read-out: Inhibition of MNCs (%); for IC50: RAW264.7, different concentrations of compound, FIG. 1A, read-out: TRAP inhibitory activity IC50
Method: as §1
(§2) The synthesized difunisal derivatives, compounds 1 to 24, were pharmacologically tested to be identified the relationship between their structure and activity. Cell viability was measured by MTT assay in RAW 264.7 cells upon treatment with compounds at 5 μM. CC50 is the cytotoxic concentration that produces 50% (CC50) cell death. […] The multinucleated osteoclasts could be formed by RANKL-induced macrophage cell line […]. RAW 264.7 cells were cultured with the indicated in the presence of drug and RANKL (100 ng/mL). Numbers of TRAP-positive (TRAP^+) multinucleated cells (MNCs) were counted in the presence of RANKL to identify the relationship between osteoclast and bone formation. […] The compound 16 performed the best inhibitory effect in the TRAP staining. The compound 16 was a derivate from compound 4 and its structure was related to compound 4. Therefore, the compound 4 and 16 were performed by TRAP assay to evaluate the effect on osteoclast differentiation by different concentration of compounds. […] According to above result, it can be speculated that: (1) Due to different substitutes on benzene ring of difunisal, the inhibitory ability of RANKL-induced osteoclast differentiation would be different. (2) Due to the electron-withdrawing group substitutes of R1 and R4 on benzene ring, or electron-withdrawing group substitutes derivatives of R2 on benzene ring, such as compound 4. (R1═F and R4═F), compound 6 (R2═CF3), compound 9 (R2═CN) and compound 16 (R1═F and R4═F), (3) compound 4 (R1═F and R4═F) and compound 6 (R2═CF3), a cyclic derivate compound 16 (R1═F and R4═F) and compound 18 (R2═CF3), the inhibitory activity would be stronger.

[4] = MTT assay, RAW264.7 cell viability; type: cell-based; settings: mouse; RAW 264.7 cells; cytotoxic concentration that produces 50% cell death
Method: as §1, §2

[5] = system: RAW 264.7 cells; assay: MTT assay, RAW264.7 cell viability; type: cell-based; settings: MTT assay, compounds at 5 μM
Method: as §1, §2

SMILES	IC50 [1]	resorbed area compared to the cell cultured without drug in the presence of RANKL [2]	inhibition at 5 µM [3]	IC50 [3]	CC50 [4]	Cell viability (%) [5]
O=c1oc2ccc(-c3ccc(F)cc3F)cc2c(=O)n1-c1cc(F)ccc1F [compound 16, 6-(2,4-difluorophenyl)-3-(2,5-difluorophenyl)-2H-benzo[e][1,3]oxazine-2,4(3H)-dione]	1.15 µM	20.11±1.51%	86.8 ± 1.74%	< 2.5 µM	10.8 µM	86.60 ± 5.69%
O=C(Nc1cc(F)ccc1F)c1cc(-c2ccc(F)cc2F)ccc1O [compound 4, N-(2,5-difluorophenyl)-2′,4′-difluoro-4-hydroxy-[1,1′-biphenyl]-3-carboxamide]	0.71 µM	23.11±2.25%	67.3 ± 4.38%	3.89 µM	14.6 µM	102.46 ± 1.10%
